Experimental data taken from article PMC6928688, “Identification of Novel PI3Kδ Selective Inhibitors by SVM-Based Multistage Virtual Screening and Molecular Dynamics Simulations” (International Journal of Molecular Sciences, 2019).
“Also recorded” adds a separate entry of the source. Like-named read-outs stand apart in the source and are kept apart here.

Tests used:
Type in all cases: biochemical
[1] = target: T1, recombinant PI3Kδ kinase (Homo sapiens, UniProt O00329); assay: Cell free PI3Kδ kinase activity, ADP-Glo chemiluminescence assay
T1 sequence (O00329 whole entry): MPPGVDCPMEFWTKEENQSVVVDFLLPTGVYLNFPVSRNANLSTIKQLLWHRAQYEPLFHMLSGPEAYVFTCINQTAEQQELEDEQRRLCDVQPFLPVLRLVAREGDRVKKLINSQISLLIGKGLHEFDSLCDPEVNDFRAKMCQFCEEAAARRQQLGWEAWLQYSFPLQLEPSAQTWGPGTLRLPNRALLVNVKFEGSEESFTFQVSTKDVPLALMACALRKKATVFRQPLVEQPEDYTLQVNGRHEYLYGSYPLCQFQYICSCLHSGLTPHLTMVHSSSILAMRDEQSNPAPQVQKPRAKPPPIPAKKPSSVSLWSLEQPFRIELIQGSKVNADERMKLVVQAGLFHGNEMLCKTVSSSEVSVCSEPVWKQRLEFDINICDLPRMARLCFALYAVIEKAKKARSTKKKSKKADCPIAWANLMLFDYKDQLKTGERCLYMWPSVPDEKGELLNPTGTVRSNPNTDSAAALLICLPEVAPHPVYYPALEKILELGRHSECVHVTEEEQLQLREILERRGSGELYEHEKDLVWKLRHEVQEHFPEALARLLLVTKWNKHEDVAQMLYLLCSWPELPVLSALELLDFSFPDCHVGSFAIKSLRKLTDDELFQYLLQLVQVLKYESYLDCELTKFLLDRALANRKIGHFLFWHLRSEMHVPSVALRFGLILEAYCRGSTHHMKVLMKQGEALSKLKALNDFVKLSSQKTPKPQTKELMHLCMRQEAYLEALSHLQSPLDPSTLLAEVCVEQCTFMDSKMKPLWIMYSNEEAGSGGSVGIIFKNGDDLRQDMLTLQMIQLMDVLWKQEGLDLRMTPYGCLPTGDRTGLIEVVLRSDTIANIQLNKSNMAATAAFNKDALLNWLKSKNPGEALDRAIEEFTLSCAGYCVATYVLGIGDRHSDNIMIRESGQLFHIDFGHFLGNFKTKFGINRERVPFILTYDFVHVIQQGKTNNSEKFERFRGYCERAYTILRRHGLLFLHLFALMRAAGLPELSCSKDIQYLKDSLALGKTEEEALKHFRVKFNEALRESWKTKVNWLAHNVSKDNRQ
T1 sequence (P27986 whole entry partner): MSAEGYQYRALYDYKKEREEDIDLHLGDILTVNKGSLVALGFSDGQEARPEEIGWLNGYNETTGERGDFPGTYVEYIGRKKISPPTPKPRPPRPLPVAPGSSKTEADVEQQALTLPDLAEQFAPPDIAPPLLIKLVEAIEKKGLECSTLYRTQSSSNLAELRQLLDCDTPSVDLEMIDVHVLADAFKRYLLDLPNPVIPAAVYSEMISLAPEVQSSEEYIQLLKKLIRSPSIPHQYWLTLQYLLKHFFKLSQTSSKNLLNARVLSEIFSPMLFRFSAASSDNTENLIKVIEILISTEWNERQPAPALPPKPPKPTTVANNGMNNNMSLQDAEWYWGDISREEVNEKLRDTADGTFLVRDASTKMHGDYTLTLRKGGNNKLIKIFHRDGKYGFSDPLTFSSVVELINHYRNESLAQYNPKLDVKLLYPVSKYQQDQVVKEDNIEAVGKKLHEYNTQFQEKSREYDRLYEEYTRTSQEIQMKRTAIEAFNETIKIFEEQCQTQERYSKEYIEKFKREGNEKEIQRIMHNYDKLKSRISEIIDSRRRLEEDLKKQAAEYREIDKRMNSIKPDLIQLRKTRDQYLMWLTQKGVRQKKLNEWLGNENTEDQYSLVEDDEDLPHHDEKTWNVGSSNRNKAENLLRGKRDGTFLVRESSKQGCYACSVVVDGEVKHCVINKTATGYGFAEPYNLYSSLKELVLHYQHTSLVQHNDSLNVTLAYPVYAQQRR
Description: The chemiluminescence method was used to determine the inhibitory effect of the 15 hit compounds on PI3Kδ (Table 5). […] For 14317, the reason for its high activity was probably the long side chain on its guanine, which was the same as the reported PI3Kδ selective inhibitor Compound 1 (idelalisib) and Compound 7 (GNE-293). For Compounds 9 and 10, the reason the pyridazinone skeleton made them so active requires further study. Finally, the two compounds with the novel skeleton were selected for the subsequent molecular dynamics (MD) simulations. […]
The inhibitory activities of inhibitors against PI3Kδ were determined by the ADP-Glo assay. The recombinant PI3Kδ kinase was diluted to 2.2 μg/mL using reaction buffer (50 mM HEPES, pH 7.5, 10 mM MgCl2, 0.1 mg/mL BSA, 2 mM DTT, 1% DMSO), and ATP was diluted with reaction buffer (10 mM) to 250 μM, and the test compound and positive drug (idelalisib) were formulated into four concentration-gradient solutions (6 × 10^−2 M, 6 × 10^−4 M, 6 × 10^−6 M, 6 × 10^−8 M). The reaction was started by sequentially adding 2 μL of an ATP solution, 1 μL of a drug solution, and 2 μL of an enzyme solution in 96 wells. The assay was conducted for 1 h at 37 °C before the addition of 5 μL ADP-Glo reagent and incubation for 40 min at room temperature. A 10 μL amount of kinase detection reagent (Promega, Beijing, China) was added and incubated for 30 min at room temperature before the luminescence value was measured using a chemiluminescence module of a full-wavelength multi-function microplate reader (PerkinElmer, Singapore).

[2] = target: PI3Kα (Homo sapiens, UniProt P42336); assay: PI3K isoform selectivity, chemiluminescence kinase assay (α); settings: isoform selectivity experiment
Chain of PI3Kα (P42336 whole entry, species assumed, canonical isoform): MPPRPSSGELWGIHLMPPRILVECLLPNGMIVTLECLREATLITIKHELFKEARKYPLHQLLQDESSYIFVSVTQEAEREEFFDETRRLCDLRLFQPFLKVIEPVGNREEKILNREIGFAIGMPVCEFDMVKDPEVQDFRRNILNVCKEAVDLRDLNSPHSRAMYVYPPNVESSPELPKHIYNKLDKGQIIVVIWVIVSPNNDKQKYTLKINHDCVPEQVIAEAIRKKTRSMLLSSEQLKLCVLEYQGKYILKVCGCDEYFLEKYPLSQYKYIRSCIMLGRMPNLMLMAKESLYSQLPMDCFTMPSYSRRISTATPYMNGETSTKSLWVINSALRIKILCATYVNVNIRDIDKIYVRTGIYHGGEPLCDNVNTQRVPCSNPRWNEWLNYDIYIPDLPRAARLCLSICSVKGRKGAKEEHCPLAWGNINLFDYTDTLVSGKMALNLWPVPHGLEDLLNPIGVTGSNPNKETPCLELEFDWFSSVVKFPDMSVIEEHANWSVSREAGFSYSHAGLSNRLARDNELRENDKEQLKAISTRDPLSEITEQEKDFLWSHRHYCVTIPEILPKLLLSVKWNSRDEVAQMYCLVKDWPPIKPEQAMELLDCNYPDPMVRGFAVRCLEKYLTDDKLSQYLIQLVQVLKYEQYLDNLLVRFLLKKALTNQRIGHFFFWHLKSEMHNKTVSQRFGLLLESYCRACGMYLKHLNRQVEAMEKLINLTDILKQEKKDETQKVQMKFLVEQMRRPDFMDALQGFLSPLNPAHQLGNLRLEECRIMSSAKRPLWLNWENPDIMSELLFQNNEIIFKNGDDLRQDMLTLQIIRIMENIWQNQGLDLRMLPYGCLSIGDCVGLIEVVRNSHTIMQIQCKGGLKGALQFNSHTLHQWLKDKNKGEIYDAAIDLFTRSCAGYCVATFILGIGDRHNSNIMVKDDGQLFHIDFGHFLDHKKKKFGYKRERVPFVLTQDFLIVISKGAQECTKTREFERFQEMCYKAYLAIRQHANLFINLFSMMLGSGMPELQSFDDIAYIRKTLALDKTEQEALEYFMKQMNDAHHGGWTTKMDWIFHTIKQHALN
Chain of PI3Kα (P27986 whole entry partner, species assumed, canonical isoform): as the sequence (P27986 whole entry partner) above

[3] = target: PI3Kβ (Homo sapiens, UniProt P42338); assay: PI3K isoform selectivity, chemiluminescence kinase assay (β); settings: isoform selectivity experiment
Chain of PI3Kβ (P42338 whole entry, canonical isoform): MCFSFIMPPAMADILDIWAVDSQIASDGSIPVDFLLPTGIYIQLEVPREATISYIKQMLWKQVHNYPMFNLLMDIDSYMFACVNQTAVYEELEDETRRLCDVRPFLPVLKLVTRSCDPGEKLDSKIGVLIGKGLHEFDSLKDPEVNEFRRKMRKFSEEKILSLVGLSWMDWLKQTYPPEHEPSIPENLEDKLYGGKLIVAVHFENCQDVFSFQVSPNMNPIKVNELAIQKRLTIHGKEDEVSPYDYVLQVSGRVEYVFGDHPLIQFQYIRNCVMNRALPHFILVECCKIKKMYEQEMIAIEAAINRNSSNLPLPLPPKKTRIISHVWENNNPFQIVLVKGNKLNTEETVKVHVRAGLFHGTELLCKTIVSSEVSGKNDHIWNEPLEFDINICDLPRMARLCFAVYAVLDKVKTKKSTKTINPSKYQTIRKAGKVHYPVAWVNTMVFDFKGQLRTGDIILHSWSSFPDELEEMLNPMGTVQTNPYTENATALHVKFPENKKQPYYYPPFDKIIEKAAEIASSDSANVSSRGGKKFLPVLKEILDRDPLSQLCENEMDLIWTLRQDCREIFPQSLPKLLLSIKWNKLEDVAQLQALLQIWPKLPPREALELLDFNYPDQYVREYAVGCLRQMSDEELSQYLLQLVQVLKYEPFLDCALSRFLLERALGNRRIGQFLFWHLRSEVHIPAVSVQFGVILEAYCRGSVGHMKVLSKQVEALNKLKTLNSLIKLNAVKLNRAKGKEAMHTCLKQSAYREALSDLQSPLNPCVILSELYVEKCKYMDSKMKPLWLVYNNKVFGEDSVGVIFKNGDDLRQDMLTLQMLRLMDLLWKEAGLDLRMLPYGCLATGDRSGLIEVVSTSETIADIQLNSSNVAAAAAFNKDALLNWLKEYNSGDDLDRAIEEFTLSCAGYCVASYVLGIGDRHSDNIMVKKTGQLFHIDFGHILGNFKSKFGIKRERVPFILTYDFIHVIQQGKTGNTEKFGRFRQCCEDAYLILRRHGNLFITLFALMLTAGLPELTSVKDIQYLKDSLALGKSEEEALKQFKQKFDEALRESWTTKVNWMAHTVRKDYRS
Chain of PI3Kβ (P27986 whole entry partner, canonical isoform): as the sequence (P27986 whole entry partner) above

[4] = target: PI3Kγ (Homo sapiens, UniProt P48736); assay: PI3K isoform selectivity, chemiluminescence kinase assay (γ); settings: isoform selectivity experiment
Chain of PI3Kγ (P48736 whole entry, canonical isoform): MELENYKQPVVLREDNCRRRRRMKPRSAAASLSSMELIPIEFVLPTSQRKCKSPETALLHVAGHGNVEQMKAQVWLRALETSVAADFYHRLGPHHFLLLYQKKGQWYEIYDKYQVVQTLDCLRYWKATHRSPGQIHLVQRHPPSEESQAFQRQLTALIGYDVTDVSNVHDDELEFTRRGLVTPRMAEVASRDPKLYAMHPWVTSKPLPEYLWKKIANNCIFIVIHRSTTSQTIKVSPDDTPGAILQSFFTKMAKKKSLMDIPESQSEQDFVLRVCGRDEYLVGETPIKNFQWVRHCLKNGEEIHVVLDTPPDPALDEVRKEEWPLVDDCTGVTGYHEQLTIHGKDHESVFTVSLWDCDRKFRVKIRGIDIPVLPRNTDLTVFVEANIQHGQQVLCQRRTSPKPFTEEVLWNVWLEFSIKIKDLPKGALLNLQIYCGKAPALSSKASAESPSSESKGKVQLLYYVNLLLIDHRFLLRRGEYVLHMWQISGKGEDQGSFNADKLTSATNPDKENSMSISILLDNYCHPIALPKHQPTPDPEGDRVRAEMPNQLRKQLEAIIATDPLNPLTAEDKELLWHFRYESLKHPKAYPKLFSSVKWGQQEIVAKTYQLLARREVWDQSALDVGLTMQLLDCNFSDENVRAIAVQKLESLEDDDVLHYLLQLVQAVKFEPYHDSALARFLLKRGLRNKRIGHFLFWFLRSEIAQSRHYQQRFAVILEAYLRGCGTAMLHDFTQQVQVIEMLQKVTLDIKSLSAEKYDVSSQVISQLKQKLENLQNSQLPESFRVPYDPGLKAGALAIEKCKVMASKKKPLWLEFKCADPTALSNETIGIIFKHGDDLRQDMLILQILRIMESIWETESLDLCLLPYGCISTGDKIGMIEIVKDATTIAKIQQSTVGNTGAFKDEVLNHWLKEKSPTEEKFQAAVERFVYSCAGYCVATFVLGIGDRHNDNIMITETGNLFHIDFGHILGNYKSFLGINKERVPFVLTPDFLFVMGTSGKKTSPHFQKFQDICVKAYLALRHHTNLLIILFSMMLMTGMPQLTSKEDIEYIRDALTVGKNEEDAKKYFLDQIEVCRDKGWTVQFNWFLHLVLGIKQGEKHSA

[5] = target: T1, recombinant PI3Kδ kinase; assay: Cell free PI3Kδ kinase activity, ADP-Glo chemiluminescence assay; settings: PI3Kδ versus α, β, γ
[6] = 15 hit compounds from NCI database, chemiluminescence method, read-out: PI3Kδ IC50

Structure (SMILES) | IC50 [1, 6] [µM] | also measured
CC/C(=N\Nc1cn[nH]c(=O)c1Br)c1ccccc1 [Compound 9] | 72.2 | –
C/C(=N\Nc1cn[nH]c(=O)c1Br)c1ccccc1 [Compound 10] | 18.9 | IC50 [2]: 75 µM; IC50 [3]: 188 µM; IC50 [4]: 226 µM; PI3K isoform selectivity [5]: significant selectivity; also recorded: high isoform selectivity
CCN(CC)CCOc1nc2c(c(=O)n(C)c(=O)n2C)n1C [Compound 14317] | 28.1 | –
CCOC(=O)c1cc(Sc2ccccc2)nc2ccccc12 [Compound 25679] | 289 | –
COc1c2c(c3c(c1OC)c(=O)c1ccccc1n3C)OCO2 [Compound 34758] | 481 | –
CCOC(=O)Nc1ccc2c(c1Cl)C(=O)c1ccccc1C2=O [Compound 39951] | 522 | –
O=c1cc(N2CCOCC2)oc2c(-c3ccccc3)cccc12 [LY294002, reference compound] | – | IC50 ([1]; read-out: PI3K IC50 δ): 3.49 µM

More lines, main results first:

IC50 [1, 6] [µM] | Structure (SMILES) | also measured
500 | CC(=O)Nc1cc2c(cc1Cl)-c1ccc(Cl)cc1C2=O [Compound 57442] | –
248 | CC(=O)Nc1cc2c(cc1Br)-c1ccc(F)cc1C2=O [Compound 73075] | –
809 | O=C1c2ccccc2-c2cc(Br)c(NC(=O)C(F)(F)F)cc21 [Compound 80144] | –
192 | COc1cc(OC)c(OC)cc1/C=C/c1ccnc2ccccc12 [Compound 80756] | –
169 | CSc1cc2c(cc1NC(C)=O)C(=O)c1cc(F)ccc1-2 [Compound 109638] | –
